From ChEMBL document CHEMBL5523719, “Structure-activity relationship study of new carbazole sulfonamide derivatives as anticancer agents with dual-target mechanism” (Eur J Med Chem, 2024)
Calls of active or inactive are those of the source. The calls are words filed in the database; no cut-off is given here.

Key:
NCI-H460 = test: Antiproliferation activity against human NCI-H460 cells measured after 72 hrs incubation by MTT assay; format: functional, cell-based; conditions: NCI-H460, 72 h
KB = test: Antiproliferation activity against human KB cells measured after 72 hrs incubation by MTT assay; format: functional, cell-based
MIA PaCa-2 = test: Antiproliferation activity against human MIA PaCa-2 cells measured after 72 hrs incubation by MTT assay; format: functional, cell-based; conditions: MIA PaCa-2, 72 h
MDA-MB-231 = test: Antiproliferation activity against human MDA-MB-231 cells measured after 72 hrs incubation by MTT assay; format: functional, cell-based; conditions: MDA-MB-231, 72 h
L02 = test: Antiproliferation activity against human L02 cells measured after 72 hrs incubation by MTT assay; format: functional, cell-based; conditions: L02, 72 h
[1] = Initial plasma concentration in Sprague-Dawley rat at 10 mg/kg, iv; format: ADME, organism-based
Bel-7402 = test: Antiproliferation activity against human Bel-7402 cells measured after 72 hrs incubation by MTT assay; format: functional, cell-based; conditions: Bel-7402, 72 h
[2] = Toxicity in mouse xenografted with human HepG2 cells assessed as body weight change at 10 to 20 mg/kg, iv every other day for 22 days; format: organism-based; conditions: in vivo, 528 h, dose 10-20 mg/kg, time 22 day
HepG2 [3] = test: In vivo antitumor activity against human HepG2 cells xenografted in mouse assessed as inhibition of tumor growth treated at 20 mg/kg, iv every other day for 22 days relative to control; format: functional; conditions: HepG2, 528 h, time 22 day, read-out: TGI
[4] = AUC (0 to last) in Sprague-Dawley rat at 10 mg/kg, iv; format: ADME, organism-based; conditions: in vivo
[5] = MRT (0 to last) in Sprague-Dawley rat at 10 mg/kg, iv; format: ADME, organism-based; conditions: in vivo
HepG2 [6] = test: In vivo antitumor activity against human HepG2 cells xenografted in mouse assessed as inhibition of tumor growth treated iv every other day for 22 days; format: functional, organism-based; conditions: time 22.0 day
[7] = Solubility of the compound; format: physicochemical
[8] = Clearance in Sprague-Dawley rat at 10 mg/kg, iv; format: ADME, organism-based; conditions: in vivo
[9] = Half life in Sprague-Dawley rat at 10 mg/kg, iv; format: ADME, organism-based; conditions: in vivo
MCF7 [10] = test: Induction of apoptosis in human MCF7 cells assessed as late apoptotic cells at 50 nM measured after 48 hrs by AnnexinV/PI double staining assays (reference value: 2.60%); format: functional
MCF7 [11] = test: Induction of apoptosis in human MCF7 cells assessed as early apoptotic cells at 50 nM measured after 48 hrs by AnnexinV/PI double staining assays (reference value: 5.32%); format: functional
NCI/ADR-RES = test: Antiproliferation activity against human MCF7/ADR cells measured after 72 hrs incubation by MTT assay; format: functional, cell-based
MCF7 [12] = test: Induction of apoptosis in human MCF7 cells assessed as necrotic cells at 50 nM measured after 48 hrs by AnnexinV/PI double staining assays (reference value: 0.89%); format: functional
MCF7 [13] = test: Induction of apoptosis in human MCF7 cells assessed as multinuclear cells at 50 nM measured after 24 hrs by fluorescent microscopy; format: functional, cell-based
HMEC-1 [14] = test: Angiogenic activity against human HMEC-1 cells assessed as decrease in vascular area measured after 48 hrs by Endothelial tube formation assay; format: functional, cell-based; conditions: dose 1-100 nM
MCF7 [15] = test: Antiproliferation activity against human MCF7 cells measured after 72 hrs incubation by MTT assay; format: functional, cell-based; conditions: MCF7, 72 h
HMEC-1 [16] = test: Anti-proliferative activity against human HMEC-1 cells measured after 48 hrs; format: functional, cell-based; conditions: HMEC-1, 48 h
HMEC-1 [17] = test: Anti-migration activity in human HMEC-1 cells assessed as inhibition of cell migration at 5 nM measured after 48 hrs by Scratching assay; format: functional, cell-based
MCF7 [18] = test: Induction of apoptosis in human MCF7 cells assessed as viable cells at 50 nM measured after 48 hrs by AnnexinV/PI double staining assays (reference value: 91.20%); format: functional; conditions: read-out: Activity
MCF7 [19] = test: Induction of cell cycle arrest in human MCF7 cells assessed as accumulation of cells at G0/G1 phase at 500 nM measured after 24 hrs by flow cytometry (reference value: 61.73%); format: functional
MCF7 [20] = test: Induction of cell cycle arrest in human MCF7 cells assessed as accumulation of cells at G2/M phase at 500 nM measured after 24 hrs by flow cytometry (reference value: 22.84%); format: functional
MCF7 [21] = test: In vivo antitumor activity against human MCF7 cells xenografted in BALB/c mouse assessed as decrease in tumor volume treated at 50 mg/kg, iv every other day for 26 days relative to control; format: functional; conditions: MCF7, 624 h, time 26 day
MCF7 [22] = test: In vivo antitumor activity against human MCF7 cells xenografted in BALB/c mouse assessed as increase in cleaved caspase-3 treated at 50 mg/kg, iv every other day for 26 days; format: functional, organism-based; conditions: time 26.0 day
HepG2 [23] = test: In vivo antitumor activity against human HepG2 cells xenografted in mouse assessed as inhibition of tumor growth treated at 50 mg/kg, iv every other day for 22 days relative to control; format: functional; conditions: HepG2, 528 h, time 22 day, read-out: TGI
MCF7 [24] = test: In vivo antitumor activity against human MCF7 cells xenografted in BALB/c mouse assessed as inhibition of Ki-67 expression treated at 50 mg/kg, iv every other day for 26 days; format: functional, organism-based; conditions: time 26.0 day

| Structure (SMILES) | IC50 (NCI-H460) [nM] | IC50 (KB) [nM] | IC50 (MIA PaCa-2) [nM] | IC50 (MDA-MB-231) [nM] | IC50 (L02) [nM] | IC50 (Bel-7402) [nM] | solubility [7] [µg/mL] | further results |
| --- | --- | --- | --- | --- | --- | --- | --- | --- |
| COc1ccc(OC)c(NS(=O)(=O)c2ccc3c(c2)c2ccc(N)cc2n3C)c1 | 25.5 | 18.3 | 19.9 | 18.9 | 11.6 |  |  |  |
| COc1cc(NS(=O)(=O)c2ccc3c(c2)c2ccc(N)cc2n3C)cc(OC)c1OC | 13.1 | 34.5 | 24.4 | 16.1 | 21 |  |  |  |
| COc1ccc(NS(=O)(=O)c2ccc3c(c2)c2ccc(NC(=O)[C@@H](N)C(C)C)cc2n3C)c(OC)n1.Cl |  |  |  |  |  | 480 | 4000 | C0 [1]: 22000 ng/mL; Activity [2]: Non-Toxic; inhibition in vivo at 20 mg/kg (HepG2 [3]): 71%; AUC(0-t) [4]: 2290 ng·h/mL; MRT last [5]: 7.26 min; TGI (HepG2 [6]): Dose-Dependent Effect; clearance [8]: 72.9 mL/min/kg; half-life [9]: 34.4 min |
| COc1ccc(NS(=O)(=O)c2ccc3c(c2)c2ccc(NC(=O)CCN4CCOCC4)cc2n3C)c(OC)n1.Cl |  |  |  |  |  | 13700 | 13000 |  |
| CN1CCN(Cc2ccc(NS(=O)(=O)c3ccc4c(c3)c3ccc(O)cc3n4C)cc2C(F)(F)F)CC1 | > 400 | > 400 | > 400 |  | > 400 |  |  |  |
| Cn1c2ccc(S(=O)(=O)Nc3cccc(-c4ccn[nH]4)c3)cc2c2ccc(N)cc21 | 325 | 244 | 61.2 | 72.5 | 94.5 |  |  |  |
| COc1ccc(NS(=O)(=O)c2ccc3c(c2)c2ccc(O)cc2n3C)c(OC)c1 | 40.5 | 78.8 | 52.8 | 82.8 | 54.4 |  |  |  |
| COc1ccc(NS(=O)(=O)c2ccc3c(c2)c2ccc(N)cc2n3C)c(OC)n1 | 33 | 40.4 | 58.3 | 35.4 | 109 | 520 | < 100 |  |
| COc1ccc(NS(=O)(=O)c2ccc3c(c2)c2ccc(O)cc2n3C)c(OC)n1 | 43.8 | 104 | 51.8 | 98.4 | 51.6 |  | < 100 | Activity (MCF7 [10]): 5.65%; Activity (MCF7 [11]): 39.03%; IC50 (NCI/ADR-RES): 88.2 nM; Activity (MCF7 [12]): 0.04%; Activity (MCF7 [13]): Active; Activity (HMEC-1 [14]): Dose-Dependent Effect; IC50 (MCF7 [15]): 41.5 nM; IC50 (HMEC-1 [16]): 6.42 nM; inhibition (HMEC-1 [17]): Active; viability at 0.05 µM (MCF7 [18]): 45.6% |
| COc1ccc(OC)c(NS(=O)(=O)c2ccc3c(c2)c2ccc(O)cc2n3C)c1 | 12.5 | 17.5 | 0.85 | 0.93 | 45.6 |  |  |  |
| COc1cc(NS(=O)(=O)c2ccc3c(c2)c2ccc(N)cc2n3C)c(OC)cc1N | 76.3 | 80.2 | 33.2 | 85.7 | 30.9 |  |  |  |
| CC(=O)O[C@H]1C(=O)[C@@]2(C)[C@H]([C@H](OC(=O)c3ccccc3)[C@]3(O)C[C@H](OC(=O)[C@H](O)[C@@H](NC(=O)c4ccccc4)c4ccccc4)C(C)=C1C3(C)C)[C@]1(OC(C)=O)CO[C@@H]1C[C@@H]2O [PACLITAXEL] |  |  |  |  |  |  |  | IC50 (NCI/ADR-RES): 464 nM; IC50 (MCF7 [15]): 28.7 nM |
| COc1cc(OC)c(NS(=O)(=O)c2ccc3c(c2)c2ccc(N)cc2n3C)c(OC)c1 | 14 | 18.1 | 31 | 39.9 | 30.9 |  |  |  |
| COc1ccc(NS(=O)(=O)c2ccc3c(c2)c2ccc(NC(=O)CCN(C)C)cc2n3C)c(OC)n1.Cl |  |  |  |  |  | 5020 | 11000 |  |
| COc1ccc(NS(=O)(=O)c2ccc3c(c2)c2ccc(NC(=O)[C@@H](N)CO)cc2n3C)c(OC)n1.Cl |  |  |  |  |  | 1450 | 2000 | Activity [2]: Non-Toxic; TGI (HepG2 [6]): Dose-Dependent Effect |
| COc1ccc(NS(=O)(=O)c2ccc3c(c2)c2ccc(NC(=O)CCCN4CCOCC4)cc2n3C)c(OC)n1.Cl |  |  |  |  |  | 8470 | 6800 |  |
| COc1ccc(/C=C\c2cc(OC)c(OC)c(OC)c2)cc1O [COMBRETASTATIN A4] |  |  |  |  |  |  |  | Activity (MCF7 [19]): 3.41%; IC50 (NCI/ADR-RES): 12.5 nM; Activity (MCF7 [20]): 3.4%; IC50 (MCF7 [15]): 32.7 nM; IC50 (HMEC-1 [16]): 6.42 nM |
| COc1ccc(NS(=O)(=O)c2ccc3c(c2)c2ccc(NC(=O)CN)cc2n3C)c(OC)n1.Cl |  |  |  |  |  | 1200 | 500 |  |
| COc1ccc(NS(=O)(=O)c2ccc3c(c2)c2ccc(NC(=O)CN4CCN(C)CC4)cc2n3C)c(OC)n1.Cl |  |  |  |  |  | 18700 | 27000 |  |
| COc1cc(NS(=O)(=O)c2ccc3c(c2)c2ccc(O)cc2n3C)cc(OC)c1OC | 34.6 | 32 | 14.6 | 39.2 | 43.1 |  |  |  |
| COc1ccc(NS(=O)(=O)c2ccc3c(c2)c2ccc(N)cc2n3C)c(OC)c1 |  |  | 57.2 | 155 | 42.2 |  |  |  |
| COc1ccc(NS(=O)(=O)c2ccc3c(c2)c2ccc(NC(=O)CN4CCCCC4)cc2n3C)c(OC)n1.Cl |  |  |  |  |  | 8210 | 4700 |  |
| COc1cc(OC)c(NS(=O)(=O)c2ccc3c(c2)c2ccc(O)cc2n3C)cc1Cl | 14.5 | 70 | 55.5 | 41.6 | 33 |  |  |  |
| COc1ccc(NS(=O)(=O)c2ccc3c(c2)c2ccc(NC(=O)CN(C)C)cc2n3C)c(OC)n1.Cl |  |  |  |  |  | 1400 | 25000 |  |
| COc1cc(OC)c(NS(=O)(=O)c2ccc3c(c2)c2ccc(N)cc2n3C)cc1Cl | 47.5 | 46 | 13.3 | 29 | 18 |  |  |  |
| COc1cc([C@@H]2c3cc4c(cc3[C@H](O)[C@H]3COC(=O)[C@H]23)OCO4)cc(OC)c1OC [PODOFILOX] | 24.6 | 3.21 | 19.7 | 80.5 | 32.8 | 40 |  |  |
| COc1ccc(NS(=O)(=O)c2ccc3c(c2)c2ccc(N)cc2n3C)cc1 | > 400 | > 400 | > 400 | > 400 | > 400 |  |  |  |
| COc1ccc(/C=C\c2cc(OC)c(OC)c(OC)c2)cc1OP(=O)([O-])[O-].[Na+].[Na+] [FOSBRETABULIN DISODIUM] | 0.29 | 0.66 | 5.26 | 3.66 | 140 |  |  | inhibition in vivo at 50 mg/kg (MCF7 [21]): 77%; Activity (MCF7 [22]): Active; Activity [2]: Non-Toxic; inhibition in vivo at 50 mg/kg (HepG2 [23]): 72%; Activity (MCF7 [24]): Active |
| COc1ccc(NS(=O)(=O)c2ccc3c(c2)c2ccc(NC(=O)[C@@H](N)Cc4ccc(O)cc4)cc2n3C)c(OC)n1.Cl |  |  |  |  |  | 1880 | 2000 |  |
